According to patent publication US8969361B2, “Cyclopropanecarboxylate esters of purine analogues” (Annji Pharmaceutical Co., Ltd., priority 2012, dated 2015):
Values after ≈ are worked out from the molar mass of the structure shown. Read-outs that look alike come from different tables or passages of the source.

Columns and labels:
[1] = Hydrolytic stability in buffer solutions of various pH (HPLC); type: physicochemical; conditions: phosphate-buffered solution, read-out: half life value (T1/2), hydrolytic stability (converted)
From the text: Hydrochloric acid of 0.1 N was used for pH 1 solution. Samples were repeatedly, manually injected onto HPLC at specific time intervals at room temperature. The peak areas of the compounds were monitored by UV detection. […] The “half life value, T1/2,” means the time required for one-half of the total amount of a compound in a solution to be degraded by hydrolysis processes when the rate of removal is nearly exponential. […] A first order calculation was used to determine the rate constant for each buffer on the loss of peak area over time.

[2] = Aqueous solubility (HPLC); type: physicochemical; conditions: thermodynamic from solid, water
Description: The solubility experiment procedure was modified due to chemical stabilities. Briefly, an excess of a test compound was added 0.5 mL of water in an one mL of vial, pre-equilibrated, and then sonicated at 23° C. for 3 min. Aliquots were filtered and analyzed for drug contents. The concentration of each compound was determined by HPCL, at λ=254 nm, 23° C. The aliquot containing the analyte was diluted 100× due to the detection limit of the instrument.

[3] = tested on: Vero cells; experiment: Toxicity to Vero cells; type: cell-based
[4] = tested on: HSV-1; experiment: Herpetic keratitis in mice with cornea inoculated by HSV-1 (eye-drops); type: in vivo, Balb/c mice; conditions: eye-drops 0.34% or 0.2% w/v in saline, 3 times a day; for corneal cloudiness, vehicle-treated group versus treated group: day-14; for severity of ocular disease symptoms (corneal clouding, stromal keratitis, blepharitis): day-21
Description: The effect of Compound 3 on herpetic keratitis was investigated in mice with cornea inoculated by HSV-1. Balb/c mice (eight weeks old, 25 g body weight) were anesthetized with isoflurane, and epithelium of both right and left corneas lightly scratched in a cross-hatch pattern (four horizontal and four vertical scratches) with a 26-gauge needle under a microscope. The mouse cornea was inoculated with 5 μL of HSV-1 suspension containing 2.5×10^6 plaque-forming units (PFU), or saline for control. After the inoculations, mice were assigned randomly to treatment groups (4˜5 mice per group), with both eyes treated with Compound 3 or ganciclovir or vehicle (saline) after lightly anaesthetized. Eight hours after HSV-1 inoculation, 1 drop (10 μl) of 0.34% or 0.2% w/v solution of compound 3 or ganciclovir in saline with anti-fungi agent (0.05 w/v amphotericin-B) was applied to each eye daily, 3 times a day. The keratitis was graded, recorded and scored daily for 21 days, and the eyes were examined with a microscopic camera at frequent intervals.

[5] = tested on: HSV-1; experiment: Attenuation of HSV-1 induced cytopathic effects on Vero cells; type: cell-based; conditions: HSV-1 at 10^-4 titration, treated 4 days, different concentrations
Description: Human epithelial (HEp-2) cells were cultured in MEM supplemented with 10% fetal calf serum and 10% heat activated newborn calf serum. Vero cells were cultured in RPMI-1640 and 10% heat activated newborn calf serum. Penicillin (1000 I.U./ml), streptomycin (100 μg/ml), and bicarbonate buffer were present in the medium, and cells were maintained at 37° C., 5% CO2, humidified atmosphere, and subcultured 2˜3 times a week.
The antiviral activity of Compound 3 was determined by evaluating the attenuation in HSV-1 induced cytopathic effects on Vero cells. Vero cells (10,000 cells/well) in a 96-well culture plate were infected with an increasingly diluted HSV-1 virus solution (10^−3 to 10^−5) in L15 medium. After 2 h incubation the unadsorbed virus was removed, the cell monolayer was washed with PBS. […] Every 24 hr the cytopathic effects were observed and photographed under microscope (FIG. 2). Anti-HSV-1 activity was determined by inhibition of cytopathic effect as compared with control. The cytopathic effects effects after HSV-1 propagation HSV-1 between Vero cells were quantified in terms of 50% tissue culture infective dose (TCID50, which was used to determine the infectious titer of HSV-1 which can cause cytopathic effects in culture).

[6] = 23° C., sonicated 3 min, read-out: aqueous solubility

Nc1nc2c(ncn2COC(CO)COC(=O)C2(N)CC2c2ccc(Br)cc2)c(=O)[nH]1 (stereo not drawn) [Compound 5, 1-Amino-2-(4-bromo-phenyl)-cyclopropanecarboxylic acid 2-(2-amino-6-oxo-1,6-dihydro-purin-9-ylmethoxy)-3-hydroxypropyl ester]
half-life at 1 mg/mL ([1]; pH 7.4, 40° C.): 85 h
solubility at 3 min [2, 6]: 155 mg/mL (≈ 314 mM)

CNC1(C(=O)OCC(CO)OCn2cnc3c(=O)[nH]c(N)nc32)CC1 (stereo not drawn) [Compound 4, 1-Methylamino-cyclopropanecarboxylic acid 2-(2-amino-6-oxo-6-dihydro-purin-9-ylmethoxy)-3-hydroxypropyl ester]
solubility at 3 min [2, 6]: 227 mg/mL (≈ 644 mM)

Nc1nc2c(ncn2COC(CO)COC(=O)C2(N)CC2c2ccccn2)c(=O)[nH]1 (stereo not drawn) [Compound 11, 1-Amino-2-pyridin-2-yl-cyclopropanecarboxylic acid 2-(2-amino-6-oxo-1,6-dihydro-purin-9-ylmethoxy)-3-hydroxypropyl ester]
half-life at 1 mg/mL ([1]; pH 7.4, 40° C.): 43 h
solubility at 3 min [2, 6]: 253 mg/mL (≈ 609 mM)

Nc1nc2c(ncn2COC(CO)COC(=O)C2(N)CC2)c(=O)[nH]1 (stereo not drawn) [Compound 3, 1-amino-cyclopropanecarboxylic acid 2-(2-amino-6-oxo-1,6-dihydro-purin-9-ylmethoxy)-3-hydroxypropyl ester]
toxicity to Vero cells [3]: nontoxic to Vero cells
corneal cloudiness, vehicle-treated group versus treated group [4]: much more significant
severity of ocular disease symptoms (corneal clouding, stromal keratitis, blepharitis) [4]: eliminated the extra-ocular keratitis morphologies almost entirely
half-life at 1 mg/mL ([1]; pH 7.4, 40° C.): 53 h
half-life at 1 mg/mL ([1]; acidic solution (pH 4), 40° C.): > 300 h
solubility at 3 min [2, 6]: 180 mg/mL (≈ 532 mM)
cytopathogenic effects of HSV-1 on Vero cells (morphological evaluation) [5]: reduced the cytopathogenic effects of HSV-1 on Vero cells in a concentration-dependent manner
melting point: > 300 °C

Nc1nc(O)c2ncn(COC(CO)CO)c2n1 [ganciclovir, reference compound]
toxicity to Vero cells ([3]; concentrations used in the antiviral test): nontoxic to Vero cells
corneal cloudiness, vehicle-treated group versus treated group [4]: much more significant
severity of ocular disease symptoms (corneal clouding, stromal keratitis, blepharitis) [4]: reduced the severities in stromal keratitia and corneal clouding dramatically, but blephartitis still existed
solubility at 3 min ([2]; 23 °C): 2.6 mg/mL (≈ 10.2 mM)

Nc1nc2c(ncn2COC(CO)COC(=O)C2(N)CC2c2ccccc2)c(=O)[nH]1 (stereo not drawn) [Compound 6, 1-Amino-2-phenyl-cyclopropanecarboxylic acid 2-(2-amino-6-oxo-1,6-dihydro-purin-9-ylmethoxy)-3-hydroxypropyl ester]
half-life at 1 mg/mL ([1]; pH 7.4, 40° C.): 75 h
solubility at 3 min [2, 6]: 170 mg/mL (≈ 410 mM)

Nc1nc2c(ncn2COC(CO)COC(=O)C2(N)CC2c2ccco2)c(=O)[nH]1 (stereo not drawn) [Compound 10, 1-Amino-2-furan-2-yl-cyclopropanecarboxylic acid 2-(2-amino-6-oxo-1,6-dihydro-purin-9-ylmethoxy)-3-hydroxypropyl ester]
half-life at 1 mg/mL ([1]; pH 7.4, 40° C.): 29 h
solubility at 3 min [2, 6]: 260 mg/mL (≈ 643 mM)

Nc1nc2c(ncn2COC(CO)COC(=O)C2(N)CC2C(F)(F)F)c(=O)[nH]1 (stereo not drawn) [Compound 9, 1-Amino-2-trifluoromethyl-cyclopropanecarboxylic acid 2-(2-amino-6-oxo-1,6-dihydro-purin-9-ylmethoxy)-3-hydroxypropyl ester]
half-life at 1 mg/mL ([1]; pH 7.4, 40° C.): 33 h
solubility at 3 min [2, 6]: 261 mg/mL (≈ 642 mM)

CC1(C)CC1(N)C(=O)OCC(CO)OCn1cnc2c(=O)[nH]c(N)nc21 (stereo not drawn) [Compound 7, 1-Amino-2,2-dimethyl-cyclopropanecarboxylic acid 2-(2-amino-6-oxo-1,6-dihydro-purin-9-ylmethoxy)-3-hydroxypropyl ester]
half-life at 1 mg/mL ([1]; pH 7.4, 40° C.): 68 h
solubility at 3 min [2, 6]: 213 mg/mL (≈ 581 mM)
melting point: > 300 °C

CC1CC1(N)C(=O)OCC(CO)OCn1cnc2c(=O)[nH]c(N)nc21 (stereo not drawn) [Compound 8, 1-Amino-2-methyl-cyclopropanecarboxylic acid 2-(2-amino-6-oxo-1,6-dihydro-purin-9-ylmethoxy)-3-hydroxypropyl ester]
half-life at 1 mg/mL ([1]; pH 7.4, 40° C.): 58 h
